According to patent publication US20240173323A1, “COMBINATION THERAPY FOR CANCER TREATMENT” (Takeda Pharmaceutical Company Limited, priority 2021, published 2024):
“Also recorded” adds a separate entry of the source.

Tested on: PHTXS-13O human primary ovarian cancer xenografts
Assay: In vivo antitumor activity of Compound 1 in combination with PARP inhibitor in Patient Derived Xenograft (PDX) model
Conditions: PHTXS-13O PDX in nude mice
Description: To investigate in vivo antitumor activity of Compound 1 in combination with PARP inhibitor, tests using Patient Derived Xenograft (PDX) model were conducted. Patient Derived Tumors were inoculated by the following Method.
Method: Patient Derived Tumors were maintained in nude mice by subcutaneous inoculation of tumor pieces (approx. 2×2×2 mm) into nude mice. Mice with tumor size of approximately 130 mm^3 (e.g., 125-130 mm^3) for xenograft studies were randomly assigned to dose groups on the day (Day 0) before start date of dosing.
Compound 1 (crystalline form I) was suspended in solution comprising 0.5 w/v % methylcellulose and administered orally to mice.
Tumor size was measured by caliper and tumor volume was estimated using the equation V=(LW^2)/2, where L and W are tumor length and width, respectively and reported in cubic millimeters.
Statistical analyses of combination effect for tumor growth was conducted as follows; […]
For synergy analyses, the observed differences in the log tumor values were used to calculate AUC values for each animal In instances when an animal in a treatment group was removed from the study, the last observed tumor value was carried forward through all subsequent time points. The AUC for the control, or vehicle, group was calculated using the predicted values from the pairwise models described above. […]

Structure (SMILES): Cc1[nH]ncc1-c1cc2nc([C@@H]3CC4CCN3CC4)[nH]c(=O)c2s1 [Compound 1, 2-[(2S)-1-azabicyclo[2.2.2]oct-2-yl]-6-(3-methyl-1H-pyrazol-4-yl)thieno[3,2-d]pyrimidin-4(3H)-one]
- antitumor activity (tumor volume) of Compound 1 combined with olaparib (Compound 1 40 or 60 mg/kg once daily orally Day 1-14 + olaparib 25 or 50 mg/kg daily orally Days 1-14, compared to either single treatment alone (FIG. 2)): good antitumor efficacy; also recorded: strong antitumor activity
- antitumor activity (tumor volume) of Compound 1 combined with niraparib (Compound 1 40 or 60 mg/kg once daily orally Day 1-21 + niraparib 25 or 50 mg/kg daily orally Days 1-21, compared to either single treatment alone (FIG. 1)): good antitumor efficacy; also recorded: strong antitumor activity
